Results reported in US20210205638A1, “PARATHYROID HORMONE AND REGENERATION OF DEGENERATIVE DISCS DISEASE” (THE JOHNS HOPKINS UNIVERSITY, priority 2017, published 2021).

Assays:
Type in all cases: in vivo, mouse
NP cells = experiment: iPTH in PTH1R KO and wild-type mice: qRT-PCR of CCN2 and ACAN
Experimental: (§1) The 11 month-old PTH1R^+/+ and PTH1R^−/− male mice were randomized into four groups: PTH1R^+/++PTH (1-34), PTH1R^+/++Vehicle, PTH1R^−/−+PTH (1-34) and PTH1R^−/−+Vehicle groups (n=8 per group). The 11 month-olds IFT88^+/+ and IFT88^−/− male mice were randomized into four groups: IFT88^+/++PTH (1-34), IFT88^+/++Vehicle, IFT88^−/−+PTH (1-34) and IFT88^−/−+Vehicle groups (n=8 per group). Mice were subcutaneously injected with either PTH (1-34) or vehicle (1 mM acetic acid in phosphate buffered saline (PBS) with equivalent volume of PTH) daily, 5 days per week, and all mice were sacrificed 4 weeks after treatment with PTH (1-34)/vehicle.
(§2) After protein extraction, specimen from the same group of mice were prepared for RNA extraction using TRIzol reagent (Invitogen) according to the manufacturer's instruction. The purity of RNA was tested by measuring the absorbance at 260 and 280 nm. For qRT-PCR, two micrograms of RNA was reverse transcribed into cDNA using the SuperScript firststrand synthesis system (Invitrogen) and analyzed with SYBR Green-Master Mix (Qiagen) in the thermal cycler with two sets of primers specific for each target gene. Relative expression was calculated for each gene by the 2^−ΔΔCT method, with GAPDH for normalization.

β6 integrin = experiment: qRT-PCR of integrin mRNA in NP tissue of aged mice; conditions: NP cells of the aged mice
Experimental: as §2

NP tissue = experiment: iPTH in PTH1R KO mice: Western blot of NP tissue
Experimental: as §1
Western blot analyses were conducted on the protein lysates from in vitro cultured NP cells or NP tissues from mice at specific time points after PTH (1-34) treatment and human at different ages with lumbar disc degeneration. The protein extract was centrifuged, the concentration of supernatant evaluated by DC protein assay (Bio-Rad Laboratories), and then separated by SDS-PAGE and blotted on a polyvinylidene fluoride membrane (Bio-Rad Laboratories). Following incubation in specific antibodies, we detected proteins using an enhanced chemiluminescence kit (Amersham Biosciences). We used specific antibodies recognizing rabbit CTGF (CCN2) (Abcam, 1:1000), Aggrecan (ACAN) (Abcan, 1:1000), p-Smad2 (Cell Signaling Technology Inc., 1:1000), Smad2 (Cell Signaling Technology Inc., 1:1000), GAPDH (Cell Signaling Technology Inc., 1:1000), CREB (Abcam, 1:2500), pCREB (Abcam, 1:2500), PTH1R PRB-635P (Covance, 1:100), PTH1R PRB-640P (Covance, 1:500) and goat integrin β6 (Santa Cruz, 1:500) to examine the protein concentrations in the lysates. Co-immunoprecipitation analyses were conducted on the nuclear and cytoplasmic protein extraction using NE-PER Nuclear and Cytoplasmic Extraction Kit (Pierce Thermo Scientific, 78833) from in vitro cultured NP cells treated with PTH (1-34) or vehicle.

18-month-old mice = experiment: iPTH in aged mice: safranin O staining and immunostaining of IVD sections
Experimental: For immunocytochemical staining, we incubated GFP labeled NP cells co-stained with primary antibody to rabbit PTH1R PRB-635P (Covance, 1:100) for 1 h and subsequently stained with secondary antibodies conjugated with fluorescence at room temperature. At the time of euthanasia, we dissected and fixed the lumbar vertebral spine in 10% buffered formalin for 48 h, decalcified them in 10% EDTA (pH 7.4) for 14-21 days and embedded them in paraffin or optimal cutting temperature (OCT) compound (Sakura Finetek). Fourmicrometer-thick coronal-oriented sections of the L1-L6 spine were processed for safranin O and fast green staining. Sections for immunostaining was performed using a standard protocol and incubated with primary antibodies to rabbit ACAN (Abcam, 1:100), CCN2 (Abcam, 1:100), integrin β8 (Abcam, 1:200), pCREB (Abcam, 1:100) and PTH1R PRB-635P (Covance, 1:100), mouse pSmad2/3 (Santa Cruz, 1:100), integrin αvβ6 (Millipore, 1:100), integrin αvβ3 (Bioss, 1:100,), integrin αvβ5 (Bioss, 1:100) at 4° C. overnight. For immunohistochemical staining, a horse radish peroxidase-streptavidin detection system (Dako) was subsequently used to detect the immunoactivity, followed by counterstaining with hematoxylin (Sigma-Aldrich). For immunofluorescent assay, the slides were incubated with secondary antibodies conjugated with fluorescence at room temperature for 1 h while avoiding light. We used isotype-matched controls, such as polyclonal rabbit IgG (R&D Systems, AB-105-C) under the same concentrations and conditions as negative controls. We micro photographed sections to perform histomorphometric measurements on the entire area of the L3-L4 of the spine (Olympus DP71).
Quantitative histomorphometric analysis was conducted in a blinded fashion with Image-Pro Plus Software version 6.0 (Media Cybernetics Inc). IVD histological score were obtained as previously described67. Five randomly selected sections per mice in each group at L3-L4 level were chosen for quantitative histomorphometric analysis. The percentage of pSmad2/3 and pCREB positive cells was obtained by counting the number of positive staining cells to the number of total cells in the NP region. The percentage area of CCN2 and ACAN positive staining was calculated by measuring the positive area to the whole area of the L3-L4 in each group.

CC[C@H](C)[C@H](NC(=O)[C@H](CCC(=O)O)NC(=O)[C@H](CO)NC(=O)[C@@H](NC(=O)[C@@H](N)CO)C(C)C)C(=O)N[C@@H](CCC(N)=O)C(=O)N[C@@H](CC(C)C)C(=O)N[C@@H](CCSC)C(=O)N[C@@H](Cc1cnc[nH]1)C(=O)N[C@@H](CC(N)=O)C(=O)N[C@@H](CC(C)C)C(=O)NCC(=O)N[C@@H](CCCCN)C(=O)N[C@@H](Cc1cnc[nH]1)C(=O)N[C@@H](CC(C)C)C(=O)N[C@@H](CC(N)=O)C(=O)N[C@@H](CO)C(=O)N[C@@H](CCSC)C(=O)N[C@@H](CCC(=O)O)C(=O)N[C@@H](CCCN=C(N)N)C(=O)N[C@H](C(=O)N[C@@H](CCC(=O)O)C(=O)N[C@@H](Cc1c[nH]c2ccccc12)C(=O)N[C@@H](CC(C)C)C(=O)N[C@@H](CCCN=C(N)N)C(=O)N[C@@H](CCCCN)C(=O)N[C@@H](CCCCN)C(=O)N[C@@H](CC(C)C)C(=O)N[C@@H](CCC(N)=O)C(=O)N[C@@H](CC(=O)O)C(=O)N[C@H](C(=O)N[C@@H](Cc1cnc[nH]1)C(=O)N[C@@H](CC(N)=O)C(=O)N[C@@H](Cc1ccccc1)C(=O)O)C(C)C)C(C)C [PTH (1-34), teriparatide]
mRNA expression of ACAN (NP cells; NP cells of wild-type mice): significantly increased | mRNA expression of CCN2 (NP cells; NP cells of wild-type mice): significantly increased | PTH increase of mRNA expression of ACAN (NP cells; PTH1R KO mice): blunted | PTH increase of mRNA expression of CCN2 (NP cells; PTH1R KO mice): blunted | mRNA expression of β6 integrin (β6 integrin): specifically induced | PTH induced increase in level of ACAN (NP tissue): diminished | PTH induced increase in level of CCN2 (NP tissue): diminished | PTH induced increase in level of pSmad2 (NP tissue): diminished | IVD score (18-month-old mice): decrease | level of CCN2+ (18-month-old mice; immunostaining): increased | level of aggrecan (18-month-old mice; immunostaining): increased | number of pSmad2/3+ NP cells (18-month-old mice; immunostaining): increased | number of NP cells (18-month-old mice; safranin O): significantly increased
